Assay results: US9504674B2, “TrkB agonists and methods of use” (EMORY UNIVERSITY, priority 2010, dated 2016)

Key:
TrkB F616A = molecular target: T1, TrkB F616A (Mus musculus, UniProt P15209, F616A); assay: Forced swim test in TrkB F616A knockin mice with or without 1NMPP1; assay type: in vivo; conditions: drugs administrated for 5 days; for immobility time in forced swim test, TrkB F616A knockin mice, after 1NMPP1 treatment: 1NMPP1 (25 μM) in drinking water; for immobility time in forced swim test, TrkB F616A knockin mice, saline group: regular drinking water
T1 construct: from tissue; host or cells: TrkB F616A knock-in mice (brain; whole animal in the forced swim test)
T1 sequence (P15209 32-821 F616A): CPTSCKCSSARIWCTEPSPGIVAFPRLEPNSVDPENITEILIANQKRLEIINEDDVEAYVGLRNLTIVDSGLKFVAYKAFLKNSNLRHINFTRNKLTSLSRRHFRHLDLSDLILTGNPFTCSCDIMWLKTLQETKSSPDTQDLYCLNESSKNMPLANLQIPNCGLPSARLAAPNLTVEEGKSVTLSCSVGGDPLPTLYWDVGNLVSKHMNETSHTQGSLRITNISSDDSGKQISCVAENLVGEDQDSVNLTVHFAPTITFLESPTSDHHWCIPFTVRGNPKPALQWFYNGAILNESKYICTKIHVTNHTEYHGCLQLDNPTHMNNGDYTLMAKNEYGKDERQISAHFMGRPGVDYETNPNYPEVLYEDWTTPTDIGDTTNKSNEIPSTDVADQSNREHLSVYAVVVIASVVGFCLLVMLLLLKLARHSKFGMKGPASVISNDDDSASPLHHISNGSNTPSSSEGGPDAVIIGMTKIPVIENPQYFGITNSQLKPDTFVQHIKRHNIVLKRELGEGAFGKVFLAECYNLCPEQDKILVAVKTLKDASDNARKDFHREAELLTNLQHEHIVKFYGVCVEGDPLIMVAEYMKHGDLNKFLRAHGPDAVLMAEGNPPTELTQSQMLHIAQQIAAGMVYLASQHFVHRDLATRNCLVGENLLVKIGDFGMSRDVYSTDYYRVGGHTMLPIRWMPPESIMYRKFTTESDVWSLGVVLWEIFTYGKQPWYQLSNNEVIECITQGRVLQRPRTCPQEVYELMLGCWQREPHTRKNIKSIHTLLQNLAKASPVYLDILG
Procedure: Male TrkB knockin mice were given the regular drinking water or 1NMPP1 (25 μM) containing drinking water one day before we started to inject the drugs and sustained throughout the whole experiment. The indicated control (saline) and drugs were administrated for 5 days. […] None of the drugs produced a significant change in 1NMPP1 treated TrkB KI mice (n=6 to 7 mice) as compared to control.
TrkB F616A knockin mice were used to assess whether the behavior responses by 7,8-DHF and its derivative is mediated by TrkB receptor. Transgenic mice were subjected to saline or 1NMPP1 pretreatment, respectively.

Akt = Akt activation / p-Akt 473 ELISA in primary cortical neurons; assay type: cell-based, rat; conditions: 500 nM
Procedure: The cell lysates (20 μg/sample) from the neurons treated with various indicated drugs were analyzed by p-Akt ELISA. The quantitative p-Akt activity in ELISA correlated with TrkB activity. Results were expressed as mean (SEM(*P<0.05, compared with the vehicle control group, Student t test, n=3).
Phospho-Akt ELISA assay by the synthetic compounds in cortical neurons. Primary cortical cultures from […] rat embryos were treated with 500 nMof various 7,8-DHF derivatives. The cell lysates were analyzed by the ELISA (left panel) (*, P<0.05; ***, P<0.001 vs vehicle, Student's t test). Different doses of 4′-DMA-7,8-DHF and 7,8-DHF were incubated with primary cortical neurons for 15 min. The cell lysates (20 μg) were analyzed with p-Akt ELISA (right panel) (*, P<0.05; **, P<0.01; ***, P<0.001 vs control; one-way ANOVA: b, P<0.01; c, P<0.001 vs 7,8-DHF at same concentration, Student's t test). […]
7,8-dihydroxyflavone (7,8-DHF) is a small molecular TrkB agonist. […] The cell lysates were analyzed by immunoblotting. […]
To compare the TrkB activation by these synthetic compounds, primary cortical cultures were prepared. […] TrkB activation was monitored at different time points.
Additional compounds are listed as designated from a to m (FIG. 6A). […] The cell lysates were analyzed by immunoblotting. […] Moreover, p-Akt ELISA was monitored to quantitatively analyze the agonistic activities of these compounds.

[1] = test system: dentate gyrus progenitor proliferation; assay: Neurogenesis assay (BrdU positive cells in dentate gyrus); assay type: in vivo, mouse; conditions: 5 mg/kg oral for 21 days, BrdU 50 mg/kg i.p., 2 h
Procedure: 4′-Dimethylamino-7,8-dihydroxyflavone and 7,8-dihydroxyflavone promote neurogenesis. Male C57BL/6J mice were orally administrated with 5 mg/kg 4′-DMA-7,8-DHF and 7,8-DHF and vehicle solvent for 21 days and followed by 50 mg/kg BrdU ip injection. In 2 h, the mice were perfused and brain sections were immunostained with anti-BrdU and DAPI. The positive cells in dentate gyms were highlighted by arrow (left panels). Quantitative analysis of the BrdU positive cells in dentate gyms (right panel).
Adult male mice (2-3 months old) were orally injected with Saline, 4′-DMA-7,8-DHF and 7,8-DHF (5 mg/kg) for 21 days. Then Brdu (50 mg/kg) was i.p. injected. In 2 h, the mice were perfused with 4% paraformaldehyde. Immunohistochemical staining was performed on formalin-fixed paraffin-embedded sections. Sections from brain were cut, deparaffinized in xylene and rehydrated in graded alcohols. The slides were boiled in 10 mM citric acid (pH 6.0) for 10 min followed by an incubation in 2 N HCl for 10 min in room temperature. The slides were then permeabilized and blocked with 1% BSA in 0.2% PBST. The incorporated BrdU were stained using anti-BrdU-FITC (Abcam, USA) at 4° C. for 16 hr. […] The slides were finally mounted with AquaMount (Lerner Laboratories, USA) containing 0.01% 1,4-diazobicyclo(2,2,2)octane and examined under a fluorescence microscope. […]

CN(C)c1ccc(-c2cc(=O)c3ccc(O)c(O)c3o2)cc1 [4′-DMA-7,8-DHF, 4′-dimethylamino-7,8-dihydroxyflavone]
immobility time in forced swim test, TrkB F616A knockin mice, after 1NMPP1 treatment (TrkB F616A): neither 4′-DMA-7,8-DHF nor 7,8-DHF had any significant effect on the immobility time
immobility time in forced swim test, TrkB F616A knockin mice, saline group (TrkB F616A): substantially reduced the immobility time
Akt activation pattern over time (Akt; primary neurons, time course): temporally coupled to TrkB activation
neurogenesis (BrdU) compared to vehicle control [1]: significantly increased neurogenesis

O=c1cc(-c2ccccc2)oc2c(O)c(O)ccc12 [7,8-DHF, 7,8-dihydroxyflavone, reference compound]
immobility time in forced swim test, TrkB F616A knockin mice, after 1NMPP1 treatment (TrkB F616A): neither 4′-DMA-7,8-DHF nor 7,8-DHF had any significant effect on the immobility time
immobility time in forced swim test, TrkB F616A knockin mice, saline group (TrkB F616A): substantially reduced the immobility time
neurogenesis (BrdU) compared to vehicle control [1]: significantly increased neurogenesis

CN(C)c1ccc(-c2cc(=O)c3ccc4nc[nH]c4c3o2)cc1 [compound m, 8-(4-(dimethylamino)phenyl)chromeno[7,8-d]imidazol-6(1H)-one]
agonistic activity by p-Akt ELISA in neurons (Akt; 20 min, primary rat cortical neurons (13 DIV)): possesses the strongest effect in activating TrkB receptor
